Source: PubChem BioAssay AID1963420 (Molecular Pharmacology Branch, DTP, NCI, 2024)
Values joined by “and” are separate entries in the source; they are usually repeats but may differ in a detail not shown here. Identical values can stand only once.

System: 494315-158-R-J1-PDC complex spheroid growth, percent test/control
Experiment: Anticancer human tumor 494315-158-R-J1-PDC patient-derived soft tissue sarcoma cell line growth inhibition [Asc]
Conditions: for viability, T/C: stronger effect = lower value
In short: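 Tumor cells were grown as multicellular spheroids with stromal HUVEC and mesenchymal stem cells and treated singly or in combination. Concentrations fell in half-log steps from the clinical Cmax, or from 10 microM where none was known.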

[1] = curve of first compound, second compound 0.1 µM
[2] = curve of first compound, second compound 0.316 µM
[3] = curve of first compound, second compound 1 µM
[4] = second compound 0.1 µM, first compound 0.0316 µM
[5] = second compound 0.1 µM, first compound 0.1 µM
[6] = second compound 0.316 µM, first compound 0.0316 µM
[7] = second compound 0.316 µM, first compound 0.1 µM
[8] = second compound 1 µM, first compound 0.0316 µM
[9] = second compound 1 µM, first compound 0.1 µM
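Note: compound exposure lasted seven days after spheroids formed for three days.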

Compound `O=C(c1cc(Cc2n[nH]c(=O)c3ccccc23)ccc1F)N1CCN(C(=O)C2CC2)CC1` + CNC(C)C(=O)NC1CN(S(=O)(=O)c2cccc(S(=O)(=O)N3CCC4CCC(C(=O)NC(c5ccccc5)c5ccccc5)N4C(=O)C(NC(=O)C(C)NC)C3)c2)CCC2CCC(C(=O)NC(c3ccccc3)c3ccccc3)N2C1=O has an IC50 (curve of first compound, second compound 0.01 µM) of 2430 nM, an IC50 (curve of first compound, second compound 0.0316 µM) of 384 nM and an IC50 [1] of under 31.6 nM. For the same compound, the IC50 [2] was under 31.6 nM, the IC50 [3] was under 31.6 nM and the viability, T/C (second compound 0.01 µM, first compound 0.0316 µM) was 66.3%. The viability, T/C (second compound 0.01 µM, first compound 0.1 µM) was 73.2%, the viability, T/C (second compound 0.01 µM, first compound 0.316 µM) was 60.3% and the viability, T/C (second compound 0.01 µM, first compound 1 µM) was 70.3%. The viability, T/C (second compound 0.01 µM, first compound 3.16 µM) was 44.8%, the viability, T/C (second compound 0.01 µM, first compound 10 µM) was 27.5% and the viability, T/C (second compound 0.0316 µM, first compound 0.0316 µM) was 51.8%. It also gave a viability, T/C (second compound 0.0316 µM, first compound 0.1 µM) of 52%, a viability, T/C (second compound 0.0316 µM, first compound 0.316 µM) of 52.1% and a viability, T/C (second compound 0.0316 µM, first compound 1 µM) of 43.9%. For the same compound, the viability, T/C (second compound 0.0316 µM, first compound 3.16 µM) was 41.9%, the viability, T/C (second compound 0.0316 µM, first compound 10 µM) was 20% and the viability, T/C [4] was 41%. It also gave a viability, T/C [5] of 46.4%, a viability, T/C (second compound 0.1 µM, first compound 0.316 µM) of 46.3% and a viability, T/C (second compound 0.1 µM, first compound 1 µM) of 39.1%. For the same compound, the viability, T/C (second compound 0.1 µM, first compound 3.16 µM) was 33.2%, the viability, T/C (second compound 0.1 µM, first compound 10 µM) was 19.8% and the viability, T/C [6] was 37.2%. For the same compound, the viability, T/C [7] was 38%, the viability, T/C (second compound 0.316 µM, first compound 0.316 µM) was 42.8% and the viability, T/C (second compound 0.316 µM, first compound 1 µM) was 35.8%. It also gave a viability, T/C (second compound 0.316 µM, first compound 3.16 µM) of 27.5%, a viability, T/C (second compound 0.316 µM, first compound 10 µM) of 14.3% and a viability, T/C [8] of 33.8%. For the same compound, the viability, T/C [9] was 39.4%, the viability, T/C (second compound 1 µM, first compound 0.316 µM) was 40.2% and the viability, T/C (second compound 1 µM, first compound 1 µM) was 31.8%. It also gave a viability, T/C (second compound 1 µM, first compound 3.16 µM) of 22.3% and a viability, T/C (second compound 1 µM, first compound 10 µM) of 13.6%.
Work on `Cn1ncnc1[C@H]1c2n[nH]c(=O)c3cc(F)cc(c23)N[C@@H]1c1ccc(F)cc1` + Cc1c(S(C)(=O)=O)c(-c2cc(F)cc(N3CCN(c4ccc(NS(=O)(=O)c5ccc(NC(CCN6CCC(C(=O)OCCCP(=O)(O)O)CC6)CSc6ccccc6)c(S(=O)(=O)C(F)(F)F)c5)cc4)CC3)c2)c(-c2ccc(Cl)cc2)n1C(C)C yielded an IC50 [1] of 26.8 nM, an IC50 [2] of 18.1 nM and an IC50 [3] of 4.34 nM. For the same compound, the IC50 (curve of first compound, second compound 3.16 µM) was 1.3 nM, the IC50 (curve of first compound, second compound 10 µM) was 4.61 nM and the viability, T/C (second compound 0.1 µM, first compound 0.000316 µM) was 83.2%. For the same compound, the viability, T/C (second compound 0.1 µM, first compound 0.001 µM) was 76%, the viability, T/C (second compound 0.1 µM, first compound 0.00316 µM) was 62.2% and the viability, T/C (second compound 0.1 µM, first compound 0.01 µM) was 56.5%. For the same compound, the viability, T/C [4] was 48.7%, the viability, T/C [5] was 46.1% and the viability, T/C (second compound 0.316 µM, first compound 0.000316 µM) was 74.6%. For the same compound, the viability, T/C (second compound 0.316 µM, first compound 0.001 µM) was 63.1%, the viability, T/C (second compound 0.316 µM, first compound 0.00316 µM) was 63.9% and the viability, T/C (second compound 0.316 µM, first compound 0.01 µM) was 44.6%. For the same compound, the viability, T/C [6] was 50.9%, the viability, T/C [7] was 48.9% and the viability, T/C (second compound 1 µM, first compound 0.000316 µM) was 56.4%. The viability, T/C (second compound 1 µM, first compound 0.001 µM) was 59%, the viability, T/C (second compound 1 µM, first compound 0.00316 µM) was 52% and the viability, T/C (second compound 1 µM, first compound 0.01 µM) was 43%. For the same compound, the viability, T/C [8] was 38.9%, the viability, T/C [9] was 35% and the viability, T/C (second compound 3.16 µM, first compound 0.000316 µM) was 56.1%. For the same compound, the viability, T/C (second compound 3.16 µM, first compound 0.001 µM) was 53.5%, the viability, T/C (second compound 3.16 µM, first compound 0.00316 µM) was 40.3% and the viability, T/C (second compound 3.16 µM, first compound 0.01 µM) was 31.6%. The viability, T/C (second compound 3.16 µM, first compound 0.0316 µM) was 32.9%, the viability, T/C (second compound 3.16 µM, first compound 0.1 µM) was 25.4% and the viability, T/C (second compound 10 µM, first compound 0.000316 µM) was 66.1%. The viability, T/C (second compound 10 µM, first compound 0.001 µM) was 71.2%, the viability, T/C (second compound 10 µM, first compound 0.00316 µM) was 53.3% and the viability, T/C (second compound 10 µM, first compound 0.01 µM) was 45.2%. For the same compound, the viability, T/C (second compound 10 µM, first compound 0.0316 µM) was 38.4% and the viability, T/C (second compound 10 µM, first compound 0.1 µM) was 45.7%.
Work on `O=C(c1ccc(F)c(F)c1Nc1ccc(I)cc1F)N1CC(O)([C@@H]2CCCCN2)C1` + CCN1C(C(=O)NC23CCC(C(=O)O)(CC2)CC3)C(c2cccc(Cl)c2F)C2(C(=O)Nc3cc(Cl)ccc32)C12CCCCC2 yielded an IC50 (curve of first compound, second compound 0.03 µM) of over 1000 nM, an IC50 (curve of first compound, second compound 0.0949 µM) of over 1000 nM and an IC50 (curve of first compound, second compound 0.3 µM) of over 1000 nM. It also gave an IC50 (curve of first compound, second compound 0.949 µM) of over 1000 nM, an IC50 (curve of first compound, second compound 3 µM) of 795 nM and a viability, T/C (second compound 0.03 µM, first compound 0.00316 µM) of 110%. It also gave a viability, T/C (second compound 0.03 µM, first compound 0.01 µM) of 116%, a viability, T/C (second compound 0.03 µM, first compound 0.0316 µM) of 121% and a viability, T/C (second compound 0.03 µM, first compound 0.1 µM) of 115%. It also gave a viability, T/C (second compound 0.03 µM, first compound 0.316 µM) of 95.7%, a viability, T/C (second compound 0.03 µM, first compound 1 µM) of 61.7% and a viability, T/C (second compound 0.0949 µM, first compound 0.00316 µM) of 98%. It also gave a viability, T/C (second compound 0.0949 µM, first compound 0.01 µM) of 90.5%, a viability, T/C (second compound 0.0949 µM, first compound 0.0316 µM) of 110% and a viability, T/C (second compound 0.0949 µM, first compound 0.1 µM) of 99.2%. The viability, T/C (second compound 0.0949 µM, first compound 0.316 µM) was 96.6%, the viability, T/C (second compound 0.0949 µM, first compound 1 µM) was 58.4% and the viability, T/C (second compound 0.3 µM, first compound 0.00316 µM) was 98.9%. It also gave a viability, T/C (second compound 0.3 µM, first compound 0.01 µM) of 114%, a viability, T/C (second compound 0.3 µM, first compound 0.0316 µM) of 120% and a viability, T/C (second compound 0.3 µM, first compound 0.1 µM) of 111%. The viability, T/C (second compound 0.3 µM, first compound 0.316 µM) was 87.8%, the viability, T/C (second compound 0.3 µM, first compound 1 µM) was 51.2% and the viability, T/C (second compound 0.949 µM, first compound 0.00316 µM) was 88.4%. The viability, T/C (second compound 0.949 µM, first compound 0.01 µM) was 93.7%, the viability, T/C (second compound 0.949 µM, first compound 0.0316 µM) was 137% and the viability, T/C (second compound 0.949 µM, first compound 0.1 µM) was 127%. It also gave a viability, T/C (second compound 0.949 µM, first compound 0.316 µM) of 97.7%, a viability, T/C (second compound 0.949 µM, first compound 1 µM) of 61.3% and a viability, T/C (second compound 3 µM, first compound 0.00316 µM) of 98.2%. The viability, T/C (second compound 3 µM, first compound 0.01 µM) was 102%, the viability, T/C (second compound 3 µM, first compound 0.0316 µM) was 101% and the viability, T/C (second compound 3 µM, first compound 0.1 µM) was 112%. For the same compound, the viability, T/C (second compound 3 µM, first compound 0.316 µM) was 84.5% and the viability, T/C (second compound 3 µM, first compound 1 µM) was 41.4%.
In the case of `C=CC(=O)N1CCN(c2nc(=O)n(-c3c(C)ccnc3C(C)C)c3nc(-c4c(O)cccc4F)c(F)cc23)C(C)C1` (configuration not stated), the viability, T/C (compound 0.0316 µM) is reported as 105% and 116% and 107%, the viability, T/C (compound 0.1 µM) is reported as 109% and 108% and 91.3% and the viability, T/C (compound 0.316 µM) is reported as 103% and 101% and 104%. For the same compound, the viability, T/C (compound 1 µM) was 113% and 112% and 105%, the viability, T/C (compound 3.16 µM) was 112% and 113% and 101% and the viability, T/C (compound 10 µM) was 98.8% and 110% and 109%. The IC50 (curve of compound) was over 10000 nM.
